Structures can show the parent of a compound that is named as a salt. Where two headings read alike, the source gives them in different places.

The conditions of series [1]: 16-membered ring.
The conditions of series [2]: 16-membered ring, 25.0 °C.
Series [3] addresses His-tagged KRAS G12D protein (Homo sapiens (Human), UniProt P01116, G12D). Description: KRAS G12D TR-FRET Assay. It is filed as binding. The conditions noted are these: read-out: KRAS G12D Binding IC50. The gist of the method:
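His-tagged KRAS G12D (diluted to 20 nM in pH 7.4 HEPES buffer with 10 mM MgCl2 and 10 μM GDP) was preincubated with titrated compound for 30 min at room temperature. Biotinylated KRPep-2d peptide (diluted to 20 nM) was then added for 1 h, and displacement was monitored by TR-FRET.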

The target of series [4] is GDP-bound KRAS protein (aa 1-169), containing both G12D and C118A amino acid substitutions (Homo sapiens (Human), UniProt P01116, C118A/G12D). Description: KRAS G12D Coupled Nucleotide Exchange Assay. It is filed as biochemical. Conditions: read-out: KRAS G12D Coupled Exchange IC50.
For series [5], the system named is Phosphorylation of ERK1/2 in AsPC-1 cells. The series can be described thus: Phospho-ERK1/2 MSD Assay. The format is cell-based, human. Conditions: read-out: 2 h p-ERK (AsPC-1 cells), IC50. The gist of the method:
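Read-out: MSD electrochemiluminescent detection of phosphorylated ERK1/2 in whole-cell lysates, fitted to a 4-parameter logistic curve for IC50. Prior to lysis, AsPC-1 cells (25,000 per well) received a 2 h compound dose-response at 37 °C.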

The test system of series [6] is AsPC-1 cells. Description: AsPC-1 CTG Assay (CellTiter-Glo cell viability). It is filed as cell-based, human. The conditions noted are these: AsPC-1, 72 h, first value of the cell, read-out: G12D/C/V Cell Proliferation CTG (72 h) AsPC-1. In short, it runs like this:
(§1)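 Human pancreatic AsPC-1 or colon SW620 cells in RPMI 1640 with 10% FBS, seeded overnight, then exposed to serially diluted compound for 72 h at 37 °C. CellTiter-Glo luminescence normalized to DMSO control; IC50 from a 4-parameter logistic model.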
For orientation: In ATP-based viability assays light output follows the ATP content of the culture.

Series [7] relates to SW620 cells. The series can be described thus: SW620 CTG Assay (CellTiter-Glo cell viability). The conditions noted are these: SW620, 72 h; third value of the cell; read-out: G12D/C/V Cell Proliferation CTG (72 h) SW620. It is filed as cell-based, human. The gist of the method: as §1

Chain of His-tagged KRAS G12D protein (P01116 other isoform, or with tags, fused parts or gaps G12D): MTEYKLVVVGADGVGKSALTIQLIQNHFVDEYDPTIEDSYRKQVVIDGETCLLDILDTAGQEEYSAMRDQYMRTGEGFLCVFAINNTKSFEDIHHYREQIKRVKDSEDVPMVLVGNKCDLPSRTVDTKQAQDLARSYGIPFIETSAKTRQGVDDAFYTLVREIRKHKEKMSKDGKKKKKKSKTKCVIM
Chain of GDP-bound KRAS protein (aa 1-169), containing both G12D and C118A amino acid substitutions (P01116 other isoform, or with tags, fused parts or gaps G12D/C118A): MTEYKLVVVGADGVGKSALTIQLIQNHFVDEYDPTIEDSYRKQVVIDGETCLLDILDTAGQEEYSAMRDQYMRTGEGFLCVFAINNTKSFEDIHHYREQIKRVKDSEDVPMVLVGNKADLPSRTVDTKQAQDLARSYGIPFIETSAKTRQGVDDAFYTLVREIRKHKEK

With `CC(C)(C)OC(=O)n1ncc2c3c(ccc21)OCCCC(=O)O[C@@H]1CCCN(C1)c1nc(OC[C@@]24CCCN2C[C@H](F)C4)nc2c(F)c-3ncc12`, the ring closure, isolated yield in series [1] (from CC(C)(C)OC(=O)n1ncc2c(-c3ncc4c(N5CCC[C@@H](OC(=O)CCCBr)C5)nc(OC[C@@]56CCCN5C[C@H](F)C6)nc4c3F)c(O)ccc21, ether bond, K2CO3, DMF, 17.5 mM) is 24%.
In series [1] (from C=CCCc1c(C)cc2c(cnn2C2CCCCO2)c1-c1ncc2c(N3CCCC(O)(CCC=C)C3)nc(OC[C@@]34CCCN3C[C@H](F)C4)nc2c1F, rcm bond, Hoveyda-Grubbs II (20 mol%)/TsOH, DCE, 1.6 mM, 80.0 °C), `Cc1cc2c(cnn2C2CCCCO2)c2c1CCC=CCCC1(O)CCCN(C1)c1nc(OC[C@@]34CCCN3C[C@H](F)C4)nc3c(F)c-2ncc13` (stereo partly shown) displayed a ring closure, isolated yield of 71%.
With `Cc1cc2c(cnn2C2CCCCO2)c2c1CCCn1ncc(n1)C1CCCN(C1)c1nc(OC[C@@]34CCCN3C[C@H](F)C4)nc3c(F)c-2ncc13` (stereo partly shown), the ring closure, isolated yield in series [1] (from Cc1cc2c(cnn2C2CCCCO2)c(-c2ncc3c(N4CCCC(c5cn[nH]n5)C4)nc(OC[C@@]45CCCN4C[C@H](F)C5)nc3c2F)c1CCCCl, other bond, K2CO3/TBAI, MeCN, 6.9 mM, 85.0 °C) is 31%.
`Cc1cc2c(cnn2C2CCCCO2)c2c1CC=CCOC[C@@H]1CCCN(C1)c1nc(OC[C@@]34CCCN3C[C@H](F)C4)nc3c(F)c-2ncc13` (mixture of isomers) showed a ring closure, isolated yield in series [1] (from C=CCOC[C@@H]1CCCN(c2nc(OC[C@@]34CCCN3C[C@H](F)C4)nc3c(F)c(-c4c(CC=C)c(C)cc5c4cnn5C4CCCCO4)ncc23)C1, rcm bond, Hoveyda-Grubbs II/TsOH, 1,2-dichloroethane, 2.1 mM, 80.0 °C) of 21%.
For the compound `O[C@@H]1C[C@@H]2COCCCCc3c(Cl)cc4[nH]ncc4c3-c3ncc4c(nc(OC[C@@]56CCCN5C[C@H](F)C6)nc4c3F)N(C1)C2` (mixture of isomers), in series [1] (from Oc1nc(OC[C@@]23CCCN2C[C@H](F)C3)nc2c(F)c(-c3c(CCCCOC[C@@H]4CNC[C@H](O)C4)c(Cl)cc4[nH]ncc34)ncc12, snar bond, BroP/DIEA, MeCN/DMSO, 4.7 mM, 25.0 °C), the ring closure, isolated yield is 25%.
`O=C1CCCc2cccc3cc(O)cc(c23)-c2ncc3c(nc(OC[C@@]45CCCN4C[C@H](F)C5)nc3c2F)N2CCC[C@H](C2)N1` [Example 1, (15R)-31-Fluoro-8-(((2R,7aS)-2-fluorotetrahydro-1H-pyrrolo[1,2-a]pyrrol-7a(5H)-yl)methoxy)-27-hydroxy-3,7,9,11,16-pentaazahexacyclo[19.7.1.1˜2,6˜.1˜11,15˜.0˜5,10˜.0˜25,29˜]hentriaconta-1(28),2(31),3,5,7,9,21,23,25(29),26-decaen-17-one bis(2,2,2-trifluoroacetate)] came in with a ring closure, yield after HPLC in series [2] (from N[C@@H]1CCCN(c2nc(OC[C@@]34CCCN3C[C@H](F)C4)nc3c(F)c(-c4cc(O)cc5cccc(CCCC(=O)O)c45)ncc23)C1, amide bond, HATU/DIEA, then NH3/MeOH, DMF, 8.9 mM, 1.0 h) of 7%. The IC50 in series [3] was determined as 5 nM; in series [4], 4 nM; in series [5] (Homo sapiens, ASPC1, 2 h), 196 nM; in series [6] (Homo sapiens, ASPC1, 72 h) it was 1930 nM.
For `C[C@@]12CCCN(C1)c1nc(OC[C@@]34CCCN3C[C@H](F)C4)nc3c(F)c(ncc13)-c1cccc3c1N(CCCC(=O)N2)CCC3` [Example 13, (15R)-31-Fluoro-8-(((2R,7aS)-2-fluorotetrahydro-1H-pyrrolo[1,2-a]pyrrol-7a(5H)-yl)methoxy)-15-methyl-3,7,9,11,16,21-hexaazahexacyclo[19.7.1.1˜2,6˜.1˜11,15˜.0˜5,10˜.0˜25,29˜]hentriaconta-1(29),2(31),3,5,7,9,25,27-octaen-17-one bis(2,2,2-trifluoroacetate)], the ring closure, yield after HPLC in series [2] (from C[C@@]1(N)CCCN(c2nc(OC[C@@]34CCCN3C[C@H](F)C4)nc3c(F)c(-c4cccc5c4N(CCCC(=O)O)CCC5)ncc23)C1, amide bond, HATU/TEA, DCM/THF/DMA, 0.98 mM) is 33%. For the same compound, the IC50 stood at 238 nM in series [3] and 342 nM in series [4].
On to `Fc1c2ncc3c(nc(OC[C@@]45CCCN4C[C@H](F)C5)nc13)N1CCO[C@@H](COCCCCc3c(Cl)cc4[nH]ncc4c3-2)C1` [Example 135, (17R)-9-Chloro-30-fluoro-24-(((2R,7aS)-2-fluorotetrahydro-1H-pyrrolo[1,2-a]pyrrol-7a(5H)-yl)methoxy)-15,18-dioxa-5,6,21,23,25,29-hexaazahexacyclo[24.3.1.1˜17,21.0˜2,10˜.0˜3,7˜.0˜22,27˜]hentriaconta-1(30),2,4,7,9,22,24,26,28-nonaene trifluoroacetate], for which the ring closure, yield after HPLC in series [2] (from Oc1nc(OC[C@@]23CCCN2C[C@H](F)C3)nc2c(F)c(-c3c(CCCCOC[C@H]4CNCCO4)c(Cl)cc4[nH]ncc34)ncc12, snar bond, BroP/DIEA, MeCN/DMSO, 4.7 mM) worked out at 39%. The IC50 in series [3] amounted to 3 nM; in series [4] it was 2 nM; in series [5] (2 h) it was 17 nM; in series [6], 250 nM; in series [7], 55.1 nM.

The record behind these values is patent US20240294551A1 (AMGEN INC., priority 2022, published 2024).
